Test results taken from patent US5538985A, “Pyrrolidinone derivatives” (Mitsui Toatsu Chemicals, Inc., priority 1994, dated 1996).

Tested on: mAMP-induced hyperkinesia
Assay: inhibition of methamphetamine (mAMP)-induced hyperkinesia in mice (Pharmacological Test 2)
Assay type: in vivo, mice (ddy male)
Conditions: Mus musculus, sc, 0.5 h; test drug 10 mg/kg peritoneally; methamphetamine 1.5 mg/kg subcutaneously; motion measured for 30 minutes; read-out: Inhibition rate of mAMP-induced hyperkinesia (%)
Method: Using mice, antipsychotic activities were investigated in terms of hyperkinesia induced by methamphetamine. For the experiment, ten 5 weeks-old ddy male mice (NIHON S.L.C K.K.) were used per each group. Immediately after each mouse was peritoneally administered at 10 mg/kg with the corresponding test drug, the mouse was placed in a photocell cage for measurement. The amount of motion was measured for 30 minutes (the first measurement: this was recorded as the action of the test drug for the active movement). Thereafter, the mouse was once taken out of the cage and subcutaneously administered at 1.5 mg/kg with methamphetamine. The mouse was then returned to the same cage and the amount of motion was measured for 30 minutes. An average amount of motion of each group was determined based on the amounts of motion after the administration of methamphetamine (mAMP) as obtained by the second measurement, and the inhibition rate (%) of hyperkinesia was calculated in accordance with the following formula: [formula]
The group to which the test drug was administered: the test drug+methamphetamine
Control group: vehicle+methamphetamine
Normal group: vehicle+saline

Structure (SMILES)	inhibition in vivo at 10 mg/kg [%]
O=C1C(CN2CCCCCC2)CCN1c1ccc(Cl)cc1 (stereo not shown) [Example 1]	55
O=C1C(CN2CCCCC2)CCN1c1ccc(Cl)cc1 (stereo not shown) [Example 23]	54
CC1CCN(CC2CCN(c3ccc(Cl)cc3)C2=O)CC1 (stereo not shown) [Example 26]	56
CC1CCN(CC2CCN(c3ccc(Cl)c(Cl)c3)C2=O)CC1 (stereo not shown) [Example 33]	53
O=C1C(CN2CCCC2)CCN1c1ccc(Cl)cc1 (stereo not shown) [Example 36]	56
O=C1CC(CN2CCCCC2)CN1c1ccc(F)cc1 (stereo not shown) [Example 37]	62
CCc1ccc(N2CC(CN3CCCCC3)CC2=O)cc1 (stereo not shown) [Example 39]	54
O=C1C(CN2CCC(O)CC2)CCN1c1ccc(Cl)cc1 (stereo not shown) [Example 40]	73
COc1ccc(N2CCC(CN3CCC(C)CC3)C2=O)cc1 (stereo not shown) [Example 41]	53
CC(=O)C1CCN(CC2CCN(c3ccc(Cl)cc3)C2=O)CC1 (stereo not shown) [Example 45]	51
O=C1C(CN2CCCCCC2)CCN1c1ccc(F)cc1 (stereo not shown) [Example 53]	62
CC1CC(C)CN(CC2CCN(c3ccc(Cl)cc3)C2=O)C1 (stereo not shown) [Example 56]	76
O=C1C(CN2CCCCCC2)CCN1c1ccc(C2CCCCC2)cc1 (stereo not shown) [Example 64]	57
O=C1C(CN2CCCCCC2)CCN1c1ccc(-c2ccccc2)cc1 (stereo not shown) [Example 70]	66
COC1CCN(CC2CCN(c3ccc(Cl)cc3)C2=O)CC1 (stereo not shown) [Example 75]	66
CC1CCN(CC2CC(=O)N(c3ccc(Cl)cc3)C2)CC1 (stereo not shown) [Example 81]	53

Target: T1, α1 receptor (Rattus norvegicus, UniProt Q9R0C9)
T1 construct: whole brain of a rat except for the cerebellum and medulla; from tissue; host or cells: rat whole brain except cerebellum and medulla, homogenate
Assay: radioreceptor assay (α1 [sic] receptor) with 3H-(+)pentazocine in rat whole brain homogenate (Pharmacological Test 1)
Assay type: binding
Conditions: 3H-(+)pentazocine 5 nM, rat whole brain except cerebellum and medulla, 2 hours
Method: By modifying the Vilner et al. method [B. J. Vilner and W. D. Bowen: Mechanisms for Neuromodulation and neuroprotection? in Multiple Sigma and PCP Receptor Ligands, pp341 (1992) NPP Books], a radioreceptor assay was conducted with respect to the α1 receptor. A homogenate (10 mg/ml) of the whole brain of a rat except for the cerebellum and medulla was incubated together with each test drug and ^3 H-ligand [5 nM of ^3 H-(+)pentazocine (NEN)] for 2 hours. Brain tissue was filtered under suction through a glass fiber filter paper ("GF/B", trade name; manufactured by Whatman) using a cell harvester ("LL-12", trade name; manufactured by Brandel) and was washed twice, each with 3 ml of a buffer solution. The glass fiber filter paper was placed in a vial, to which 3.5 ml of a scintillator ("ACSII" trade name; product of Amersham International plc) were added. After being left for 10 hours, the amount of ^3 H-ligand bound to the receptor was measured by a liquid scintillation counter. Incidentally, (+)-pentazocine (10 μM) was used for the measurement of a blank.
Binding rates of ^3 H-ligand to the receptor at individual concentrations of each test drug were plotted to draw a graph by assuming that the binding rate without addition of the test drug was 100% and that when the blank substance was added was 0%. A concentration of the test drug, which would give a binding rate of 50%, was then determined and recorded as an IC50 value. From the IC50 value, the Ki value was determined in accordance with the following formula: [formula] KD represents the dissociation constant between ^3 H-ligand and the receptor, and was obtained by the Scatchard plotting of the bonding to the receptor when the concentration of ^3 H-ligand was varied.

T1 sequence (Q9R0C9 whole entry): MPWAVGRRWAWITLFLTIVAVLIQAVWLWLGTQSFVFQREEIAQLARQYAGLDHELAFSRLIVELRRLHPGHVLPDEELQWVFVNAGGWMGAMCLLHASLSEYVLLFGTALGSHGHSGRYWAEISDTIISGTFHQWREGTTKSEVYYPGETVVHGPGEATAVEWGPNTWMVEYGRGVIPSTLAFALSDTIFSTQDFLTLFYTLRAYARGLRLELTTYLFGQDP

Structure (SMILES)	Ki [nM]
O=C1C(CN2CCCCCC2)CCN1c1ccc(Cl)cc1 (single isomer, unassigned; (-)) [Example 93 (-) form, (-) 1-(4-Chlorophenyl)-3-(hexahydro-1H-azepin-1-ylmethyl)-2-pyrrolidinone]	1.5
O=C1C(CN2CCCCCC2)CCN1c1ccc(Cl)cc1 (stereo not shown) [Example 1]	2.7
O=C1C(CN2CCCCC2)CCN1c1ccc(Cl)c(Cl)c1 (stereo not shown) [Example 2]	2.8
O=C1C(CN2CCCCCC2)CCN1c1cccc(C(F)(F)F)c1 (stereo not shown) [Example 3]	3.2
CC1CCN(CC2CCN(c3cccc(C(F)(F)F)c3)C2=O)CC1 (stereo not shown) [Example 11]	2.1
O=C1C(CN2CCCCC2)CCN1c1cccc(Cl)c1 (stereo not shown) [Example 12]	4.7
O=C1C(CN2CCCCC2)CCN1c1cccc(Br)c1 (stereo not shown) [Example 13]	1.3
O=C1C(CN2CCCCC2)CCN1c1cccc(C(F)(F)F)c1 (stereo not shown) [Example 20]	3.5
CC1CCN(CC2CCN(c3ccc(C(C)(C)C)cc3)C2=O)CC1 (stereo not shown) [Example 27]	2.3
CCC1CCN(CC2CCN(c3ccc(Cl)cc3)C2=O)CC1 (stereo not shown) [Example 29]	3.8
O=C1C(CN2CCCCCCC2)CCN1c1ccc(Cl)c(Cl)c1 (stereo not shown) [Example 31]	1.2
CC1CCN(CC2CCN(c3ccc(Cl)c(Cl)c3)C2=O)CC1 (stereo not shown) [Example 33]	7
COc1cccc(N2CCC(CN3CCC(C)CC3)C2=O)c1 (stereo not shown) [Example 43]	3.6
COc1cccc(N2CCC(CN3CCCCCC3)C2=O)c1 (stereo not shown) [Example 44]	5.9
CC1CCN(CC2(C)CCN(c3ccc(Cl)cc3)C2=O)CC1 (stereo not shown) [Example 49]	3
O=C1C(CN2CCCCC2)CCN1c1ccc(C(F)(F)F)cc1 (stereo not shown) [Example 74]	4.4
COC1CCN(CC2CCN(c3ccc(Cl)cc3)C2=O)CC1 (stereo not shown) [Example 75]	8
O=C1C(CN2CCCCCC2)CCN1c1ccc(Cl)cc1 (stereo not shown) [Example 82]	2
